Source: patent US10662225B2, “Backbone cyclized inhibitory peptides of myeloid differentiation factor 88 (MyD88)” (Yissum Research Development Company of the Hebrew …, priority 2016, dated 2020)
Numbered stars: 1 amine (or outer) side, 2 acyl side, 3 side chain; on linkers, the order of the positions; unused ones are H or OH. Bridge positions count the residues as written; N and C are the ends. Square brackets hold non-standard residues; d marks the D form. Peptide text beside a SMILES is read from it. CO = O=C([*:1])[*:2]; Nlys = NCCCCNCC(=O)O

Columns and labels:
[1] = tested on: NFκB p65 nuclear translocation; assay: NFκB p65 nuclear translocation in HeLa cells stimulated with TNFα or IL-1β; type: cell-based
Experimental: FIG. 6. HeLa assay showing specificity of MyD88 inhibition. HeLa cells were stimulated with recombinant TNFα or IL-1β and NFkB localization was determined with anti-p65 conjugated to rhodamine. The percent of cells with nuclear localization was determined and is shown in the bar graphs on the right. 6A: Top row, HeLa cells transduced with control shRNA. Second row, shRNA knock-down of MyD88. 6B: Top row, HeLa cells treated with MyD88 inhibitor linear peptide. Bottom row, HeLa cells treated with scrambled control version of the MyD88 inhibitor linear peptide (SEQ ID NO: 5).
FIG. 7. HeLa assay showing specificity of MyD88 inhibition by 4×4MyDI. HeLa cells were stimulated with recombinant TNFα or IL-1b and NFkB localization was determined with anti-p65 conjugated to rhodamine. The percent of cells with nuclear localization was determined, and is shown in the bar graphs on the right. Top row, HeLa cells with no pre-treatment. Second row, HeLa cells pre-treated for 30 min with the backbone cyclic 4×4MyDI compound.
Lead compounds were further tested in vitro to confirm the specificity of the inhibition. A fluorescence-based in vitro activity assay that determines the degree of activation of the transcription factor NFκB was established. In this assay, cells are treated with either TNFα or IL-1b, both inflammatory cytokines that activate NFκB. Upon activation, the p65 unit of the NFκB transcription factor re-locates from the cytoplasm to the nucleus. Using fluorescently-tagged antibodies to p65, the cytoplasmic vs. nuclear localization of the factor is determined. Importantly, since the signaling of IL-1b, but not TNFα, is dependent on MyD88, this assay can establish the specificity of the inhibition achieved using the lead compounds.
Cells were activated with either IL-1β (the signaling of the IL-1 receptor is dependent on MyD88), or with TNFα (signaling of its receptor is independent of MyD88). The activation was measured by the translocation of NFκB from the cytoplasm to the nucleus. As a positive control, a stable MyD88 knock-down cell line was established using lentiviral encoded shRNA.
Using the same system, when cells were treated with the backbone cyclic peptide 4×4MyDI, activation by IL-1β was blocked, however when treated with TNFα the activation was not inhibited.

[2] = Metabolic stability in plasma (quantitative HPLC); type: in vitro ADME, human
Experimental: FIGS. 17A and 17B. 4×4MyDI is metabolically stable in comparison to the linear MyDI peptide. 4×4MyDI vs. linear MyDI heptapeptide were incubated independently in either human plasma […] or human plasma supplemented with Brush Border Membrane Vesicles (BBMV, 18B). At various time points the solution was sampled and the amount of remaining compound was determined by quantitative HPLC.
Peptide backbone cyclization confers metabolic stability on peptides that are inherently susceptible to degradation by proteases. […] The stability of the compounds was then tested in plasma enriched with Brush Border Membrane Vesicles (BBMV). This system models the degradative conditions of the intestine.

NFkB activation = assay: NFkB-luciferase reporter in RAW 264.7 macrophages stimulated with LPS; type: cell-based, mouse; settings: RAW 264.7 NFkB-luc, 4 hours
Experimental: FIG. 13. 4×4MyDI and Myr4×4MyDI block NFkB induction in response to LPS stimulation of RAW 264.7 NFkB-luc cells. RAW 264.7 murine macrophages were transfected with an NFkB-luciferase reporter gene and stimulated with LPS in the absence or presence of increasing concentrations of the inhibitors. After 4 hours cells were lysed and luminescence was recorded using a Tecan plate reader. BG denotes background.
In this assay the mouse macrophage RAW264.7 cell line is transfected with an NFkB-luciferase reporter construct and then cells are stimulated by exposure to bacterial LPS and light emission is measured after addition of luciferase substrate.

[3] = tested on: T cells responding to the self-antigen MOG35-55; assay: Cytokine response of draining lymph node cells of treated EAE mice to MOG35-55; type: in vivo; settings: 4 mg/Kg three times per week until day 11; ex vivo restimulation
Experimental: FIGS. 16A and 16B. inhibition of IFNγ and IL-17 secretion in 4×4MyDI treated mice. C57BL/6 mice were immunized with MOG35-55/CFA and administered pertussis toxin on day zero and after 48 h. Groups of mice were treated with 4×4MyDI at 4 mg/kg from day zero, three times a week, and animals were sacrificed on day 11 after immunization. Control mice were treated with an equal volume of PBS using the same schedule of administration. Single cell suspensions from draining lymph nodes were stimulated with different concentrations of MOG35-55 peptide (SEQ ID NO: 4) for three days and supernatants were collected for analysis of cytokines by ELISA.
Of note, IFNγ and IL-17 are considered pro-inflammatory cytokines that are highly detrimental in the autoimmune process.

Experimental for CaCO-2 monolayer: Transport studies are performed through the CaCO-2 monolayer (passage range of 52-60) seeded at density of 25×10^5 cells/cm^2 on untreated culture inserts of polycarbonate membrane with 0.4 μm pores and surface of 1.1 cm^2. The culture inserets containing Caco-2 monolayers were place in 24 transwell plates 12 mm, Costar™. The cells were monitored for their transepithelial electrical resistance (TEER) measurements to assure TEER between 300 and 500 Ω*cm^2. […] HBSS supplemented with 10 mM MES and adjusted to pH 6.5 will be used as transport medium in the donor compartment and pH 7.4 in the acceptor compartment. The donor solution contains the test compound.
The investigation of the permeability of 4×4MyDI through CaCO-2 monolayer includes using two main control groups, Atenolol and Metoprolol that show passive para-cellular and trans-cellular permeability, respectively. The CaCO-2 model allows investigating the mechanism of absorption, so the permeability from apical to basolateral membranes (AB) can be measured to evaluate the total permeability. The permeability from basolateral to apical membranes (BA) can also be measured and compared to AB P apparent (Papp) to determine if the absorption is though passive diffusion, active transporters or if there is involvement of efflux systems.

## CC(C)C[C@@H]1NC(=O)[C@H](C(C)C)NC(=O)[C@H](CC(=O)O)NC(=O)[C@H](CCCNC(=N)N)NC(=O)CN(C(=O)[C@@H](N)Cc2c[nH]c3ccccc23)CCCCNC(=O)NCCCCN(CC(=O)NCC(=O)N[C@H](C(N)=O)[C@@H](C)O)C1=O [4×4MyDI] (H-W[Nlys]RDVL[Nlys]GT-NH2; linker 2-7 via CO; N-terminus assumed)
[1]; HeLa cells, IL-1β
  NFκB activation by IL-1β: blocked
[1]; HeLa cells, IL-1β (MyD88 dependent)
  Percent p65 nuclear translocation, IL-1β: 27%
[1]; HeLa cells, TNFα
  NFκB activation by TNFα: not inhibited
[1]; HeLa cells, TNFα (MyD88 independent)
  Percent p65 nuclear translocation, TNFα: 97%
[1]; HeLa cells, no stimulation
  Percent p65 nuclear translocation, No stimulation: 0%
[1]; IL-1β versus TNFα
  specificity of MyD88 inhibition: specific inhibitor
[2]; human, human plasma, over the following two hours (hours 2-4), read-out: decrease of amount in plasma
  metabolised at 4 h: 20%
[2]; plasma, 4×4MyDI: first two hours
  stability in plasma: completely stable
NFkB activation
  block of NFkB activation: block NFkB activation in a dose dependent manner
[3]
  IFNγ produced by T cells responding to MOG35-55: complete inhibition
  IL-17 produced by T cells responding to MOG35-55: complete inhibition
CaCO-2 monolayer
  Papp AB (apical to basolateral): higher than metoprolol
